Laboratory results: ChEMBL document CHEMBL5212743, “Selectivity Literature for EUbOPEN Chemogenomics Library wave 3” (2023)
Each block holds one compound with its values, some of them ahead of it.

How the values were obtained:
[1] = target: Mitogen-activated protein kinase kinase kinase 3 (Homo sapiens, UniProt Q99759); assay: Selectivity interaction (Enzymatic assay) EUB0000178b MAP3K3
[2] = target: Serine/threonine-protein kinase 24 (Homo sapiens) (UniProt Q9Y6E0); assay: Selectivity interaction (KinomeScan (DiscoverX)) EUB0000178b STK24; conditions: at 1 µM
[3] = target: T1, Aurora kinase B (Homo sapiens, UniProt Q96GD4); assay: Selectivity interaction (KinomeScan (DiscoverX)) EUB0000178b AURKB; conditions: at 1 µM
T1 sequence (Q96GD4 whole entry): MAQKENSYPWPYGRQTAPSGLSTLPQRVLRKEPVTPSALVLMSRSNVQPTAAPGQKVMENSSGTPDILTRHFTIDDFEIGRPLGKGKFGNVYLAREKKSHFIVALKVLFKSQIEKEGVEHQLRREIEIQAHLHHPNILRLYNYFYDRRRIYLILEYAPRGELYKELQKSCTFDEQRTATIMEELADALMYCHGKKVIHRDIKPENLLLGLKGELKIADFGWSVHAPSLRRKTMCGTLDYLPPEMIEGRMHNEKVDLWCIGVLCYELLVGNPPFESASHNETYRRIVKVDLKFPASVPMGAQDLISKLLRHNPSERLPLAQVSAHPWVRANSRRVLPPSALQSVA

[4] = target: T1, Aurora kinase B; assay: Selectivity interaction (Enzymatic assay) EUB0000178b AURKB
[5] = target: Serine/threonine-protein kinase DCLK1 (Homo sapiens) (UniProt O15075); assay: Selectivity interaction (KinomeScan (DiscoverX)) EUB0000178b DCLK1; conditions: at 1 µM
[6] = target: Proto-oncogene tyrosine-protein kinase Src (Homo sapiens, UniProt P12931); conditions: at 1 µM
[7] = target: Mitogen-activated protein kinase kinase kinase 1 (Homo sapiens) (UniProt Q13233); assay: Selectivity interaction (KinomeScan (DiscoverX)) EUB0000698a MAP3K1; conditions: at 10 µM
[8] = target: Serine/threonine-protein kinase PLK2 (Homo sapiens) (UniProt Q9NYY3); assay: Selectivity interaction (KinomeScan (DiscoverX)) EUB0000698a PLK2; conditions: at 10 µM
Serine/threonine-protein kinase PLK2 (Homo sapiens), sequence (Q9NYY3 whole entry, looked up): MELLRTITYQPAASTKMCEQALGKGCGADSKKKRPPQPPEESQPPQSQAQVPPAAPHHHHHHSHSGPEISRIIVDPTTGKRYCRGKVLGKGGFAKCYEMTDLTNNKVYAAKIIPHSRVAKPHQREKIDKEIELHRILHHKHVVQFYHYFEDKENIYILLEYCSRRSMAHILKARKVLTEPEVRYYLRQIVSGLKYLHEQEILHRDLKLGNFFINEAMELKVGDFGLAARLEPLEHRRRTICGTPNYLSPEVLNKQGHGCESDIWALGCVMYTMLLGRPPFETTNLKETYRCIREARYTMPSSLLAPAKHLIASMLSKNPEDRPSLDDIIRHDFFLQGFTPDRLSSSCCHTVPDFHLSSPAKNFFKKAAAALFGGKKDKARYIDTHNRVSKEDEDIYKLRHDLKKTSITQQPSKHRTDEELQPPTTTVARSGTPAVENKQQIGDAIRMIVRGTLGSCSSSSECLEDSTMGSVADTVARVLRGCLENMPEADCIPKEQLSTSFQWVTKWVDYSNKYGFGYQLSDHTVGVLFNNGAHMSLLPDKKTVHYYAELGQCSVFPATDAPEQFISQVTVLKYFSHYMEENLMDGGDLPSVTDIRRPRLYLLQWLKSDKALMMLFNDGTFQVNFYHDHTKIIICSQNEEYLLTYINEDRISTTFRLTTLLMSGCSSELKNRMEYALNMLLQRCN

[9] = target: Vascular endothelial growth factor receptor 3 (Homo sapiens) (UniProt P35916); assay: Selectivity interaction (KinomeScan (DiscoverX)) EUB0000698a FLT4; conditions: at 10 µM
[10] = target: Mitogen-activated protein kinase 11 (Homo sapiens) (UniProt Q15759); assay: Selectivity interaction (Kinase panel (University of Dundee)) EUB0000169b MAPK11; conditions: at 10 µM
[11] = target: Tyrosine-protein kinase CSK (Homo sapiens) (UniProt P41240); assay: Selectivity interaction (Kinase panel (University of Dundee)) EUB0000169b CSK; conditions: at 10 µM
Tyrosine-protein kinase CSK (Homo sapiens), sequence (P41240 2-450 limits assumed): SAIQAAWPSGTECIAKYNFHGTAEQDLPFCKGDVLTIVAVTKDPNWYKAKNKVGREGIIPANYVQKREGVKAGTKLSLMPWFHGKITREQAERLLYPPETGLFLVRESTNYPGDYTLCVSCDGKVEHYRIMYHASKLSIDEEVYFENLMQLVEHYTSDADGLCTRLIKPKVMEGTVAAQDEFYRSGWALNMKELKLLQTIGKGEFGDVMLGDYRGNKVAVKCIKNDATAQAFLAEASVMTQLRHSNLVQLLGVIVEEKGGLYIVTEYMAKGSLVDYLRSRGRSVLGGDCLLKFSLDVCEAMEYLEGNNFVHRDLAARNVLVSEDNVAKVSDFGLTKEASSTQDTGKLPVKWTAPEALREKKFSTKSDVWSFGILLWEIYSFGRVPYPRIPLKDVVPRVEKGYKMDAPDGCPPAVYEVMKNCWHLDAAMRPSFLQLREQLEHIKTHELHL

[12] = target: Serine/threonine-protein kinase Chk1 (Homo sapiens) (UniProt O14757); assay: Selectivity interaction (Kinase panel (University of Dundee)) EUB0000169b CHEK1; conditions: at 10 µM
Serine/threonine-protein kinase Chk1 (Homo sapiens), sequence (O14757 whole entry, canonical isoform): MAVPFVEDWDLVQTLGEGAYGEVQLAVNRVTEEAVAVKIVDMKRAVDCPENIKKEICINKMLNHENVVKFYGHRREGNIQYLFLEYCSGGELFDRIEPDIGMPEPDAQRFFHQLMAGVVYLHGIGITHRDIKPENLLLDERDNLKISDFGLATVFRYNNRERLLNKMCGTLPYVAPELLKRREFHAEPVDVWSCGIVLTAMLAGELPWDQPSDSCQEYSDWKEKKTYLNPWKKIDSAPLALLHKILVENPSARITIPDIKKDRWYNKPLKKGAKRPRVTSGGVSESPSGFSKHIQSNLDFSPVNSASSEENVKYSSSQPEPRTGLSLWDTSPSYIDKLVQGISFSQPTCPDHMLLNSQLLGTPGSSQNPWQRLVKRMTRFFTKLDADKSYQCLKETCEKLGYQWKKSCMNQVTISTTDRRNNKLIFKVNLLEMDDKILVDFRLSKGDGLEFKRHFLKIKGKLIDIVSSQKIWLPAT

[13] = target: Casein kinase I isoform alpha (Homo sapiens) (UniProt P48729); conditions: at 10 µM
[14] = target: Ribosomal protein S6 kinase alpha-4 (Homo sapiens) (UniProt O75676); assay: Selectivity interaction (KinomeScan (DiscoverX)) EUB0000169b RPS6KA4; conditions: at 1 µM
Ribosomal protein S6 kinase alpha-4 (Homo sapiens), sequence (O75676 whole entry, looked up): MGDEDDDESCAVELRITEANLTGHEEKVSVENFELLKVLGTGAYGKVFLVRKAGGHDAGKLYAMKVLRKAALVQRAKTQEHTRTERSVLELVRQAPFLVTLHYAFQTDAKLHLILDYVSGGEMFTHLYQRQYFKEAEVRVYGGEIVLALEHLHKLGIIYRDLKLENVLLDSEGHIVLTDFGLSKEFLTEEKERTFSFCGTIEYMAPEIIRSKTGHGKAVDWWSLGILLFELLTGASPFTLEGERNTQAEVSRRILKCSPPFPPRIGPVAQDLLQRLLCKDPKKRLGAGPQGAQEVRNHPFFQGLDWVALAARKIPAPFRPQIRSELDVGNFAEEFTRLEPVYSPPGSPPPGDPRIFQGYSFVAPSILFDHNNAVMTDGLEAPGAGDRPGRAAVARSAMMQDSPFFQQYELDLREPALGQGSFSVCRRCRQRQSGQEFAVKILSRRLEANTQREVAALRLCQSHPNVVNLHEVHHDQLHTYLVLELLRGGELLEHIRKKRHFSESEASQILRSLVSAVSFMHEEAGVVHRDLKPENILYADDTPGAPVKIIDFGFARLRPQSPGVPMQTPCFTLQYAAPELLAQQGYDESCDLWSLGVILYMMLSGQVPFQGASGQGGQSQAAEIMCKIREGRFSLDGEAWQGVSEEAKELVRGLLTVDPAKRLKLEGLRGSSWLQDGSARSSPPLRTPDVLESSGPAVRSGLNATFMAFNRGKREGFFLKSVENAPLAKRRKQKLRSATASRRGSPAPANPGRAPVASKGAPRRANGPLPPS

[15] = target: Ribosomal protein S6 kinase alpha-1 (Homo sapiens) (UniProt Q15418); conditions: at 10 µM
Ribosomal protein S6 kinase alpha-1 (Homo sapiens), sequence (Q15418 whole entry, looked up): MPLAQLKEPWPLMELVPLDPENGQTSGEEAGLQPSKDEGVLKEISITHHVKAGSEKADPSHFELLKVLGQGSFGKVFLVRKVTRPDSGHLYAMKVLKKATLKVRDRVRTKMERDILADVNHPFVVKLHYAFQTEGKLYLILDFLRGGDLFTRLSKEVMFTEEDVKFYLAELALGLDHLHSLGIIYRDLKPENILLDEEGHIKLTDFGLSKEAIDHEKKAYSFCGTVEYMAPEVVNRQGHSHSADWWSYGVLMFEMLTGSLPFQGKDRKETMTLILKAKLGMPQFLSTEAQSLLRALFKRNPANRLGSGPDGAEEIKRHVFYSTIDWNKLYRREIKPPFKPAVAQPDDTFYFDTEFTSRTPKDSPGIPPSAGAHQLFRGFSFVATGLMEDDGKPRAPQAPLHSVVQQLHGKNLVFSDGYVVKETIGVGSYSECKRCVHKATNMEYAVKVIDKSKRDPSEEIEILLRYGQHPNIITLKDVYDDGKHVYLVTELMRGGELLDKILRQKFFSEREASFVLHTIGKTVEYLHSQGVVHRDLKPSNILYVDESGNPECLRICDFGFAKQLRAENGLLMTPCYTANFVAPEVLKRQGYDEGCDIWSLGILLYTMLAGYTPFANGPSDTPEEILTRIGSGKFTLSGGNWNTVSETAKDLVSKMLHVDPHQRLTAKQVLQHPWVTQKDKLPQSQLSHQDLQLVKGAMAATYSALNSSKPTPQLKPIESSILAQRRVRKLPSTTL

[16] = target: Casein kinase II subunit alpha (Homo sapiens, UniProt P68400); assay: Selectivity interaction (Kinase panel (University of Dundee)) EUB0000169b CSNK2A1; conditions: at 10 µM
Casein kinase II subunit alpha, sequence (P68400 whole entry, looked up): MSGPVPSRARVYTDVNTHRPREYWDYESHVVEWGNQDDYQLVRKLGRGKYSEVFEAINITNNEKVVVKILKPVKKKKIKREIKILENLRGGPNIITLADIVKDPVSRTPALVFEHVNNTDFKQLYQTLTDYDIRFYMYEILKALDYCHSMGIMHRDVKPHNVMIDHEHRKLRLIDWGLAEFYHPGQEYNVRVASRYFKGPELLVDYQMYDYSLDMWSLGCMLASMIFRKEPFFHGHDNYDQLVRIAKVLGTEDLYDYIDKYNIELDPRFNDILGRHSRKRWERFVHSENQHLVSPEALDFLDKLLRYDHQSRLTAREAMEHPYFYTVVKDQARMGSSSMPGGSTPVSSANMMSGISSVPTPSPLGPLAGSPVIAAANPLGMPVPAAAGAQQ

[17] = target: T2, Phosphatidylinositol 5-phosphate 4-kinase type-2 gamma (Homo sapiens) (UniProt Q8TBX8); assay: Selectivity interaction (KinomeScan (DiscoverX)) EUB0000169b PIP4K2C; conditions: at 1 µM
T2 sequence (whole entry): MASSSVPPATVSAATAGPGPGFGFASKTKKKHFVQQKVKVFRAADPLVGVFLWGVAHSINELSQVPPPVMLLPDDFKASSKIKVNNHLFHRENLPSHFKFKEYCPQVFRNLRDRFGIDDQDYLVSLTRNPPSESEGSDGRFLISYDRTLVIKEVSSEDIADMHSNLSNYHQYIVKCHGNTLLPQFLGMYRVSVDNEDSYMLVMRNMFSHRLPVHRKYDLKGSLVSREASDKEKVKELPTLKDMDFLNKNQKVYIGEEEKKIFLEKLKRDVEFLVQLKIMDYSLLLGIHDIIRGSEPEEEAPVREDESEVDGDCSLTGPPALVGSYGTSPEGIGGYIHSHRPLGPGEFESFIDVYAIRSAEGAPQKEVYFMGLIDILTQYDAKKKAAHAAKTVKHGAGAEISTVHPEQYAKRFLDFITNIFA

[18] = target: Mitogen-activated protein kinase 1 (Homo sapiens, UniProt P28482); assay: Selectivity interaction (Kinase panel (University of Dundee)) EUB0000169b MAPK1; conditions: at 10 µM
[19] = target: Mitogen-activated protein kinase 14 (Homo sapiens, UniProt Q16539); conditions: at 10 µM
Mitogen-activated protein kinase 14, sequence (Q16539 whole entry): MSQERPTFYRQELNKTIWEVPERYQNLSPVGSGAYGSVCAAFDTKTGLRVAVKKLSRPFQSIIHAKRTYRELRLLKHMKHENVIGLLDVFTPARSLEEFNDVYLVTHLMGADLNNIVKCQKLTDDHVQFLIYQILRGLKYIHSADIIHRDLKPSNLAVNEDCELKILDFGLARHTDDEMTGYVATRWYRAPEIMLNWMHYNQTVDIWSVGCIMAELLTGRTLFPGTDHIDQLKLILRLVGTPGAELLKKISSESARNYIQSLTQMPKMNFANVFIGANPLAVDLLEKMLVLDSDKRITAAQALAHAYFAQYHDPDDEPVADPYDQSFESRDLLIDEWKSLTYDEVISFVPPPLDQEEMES

[20] = target: Ribosomal protein S6 kinase alpha-6 (Homo sapiens) (UniProt Q9UK32); assay: Selectivity interaction (KinomeScan (DiscoverX)) EUB0000702a RPS6KA6; conditions: at 1 µM
[21] = target: High affinity nerve growth factor receptor (Homo sapiens, UniProt P04629); assay: Selectivity interaction (KinomeScan (DiscoverX)) EUB0000702a NTRK1; conditions: at 1 µM
[22] = target: Serine/threonine-protein kinase PLK2 (Homo sapiens) (UniProt Q9NYY3); assay: Selectivity interaction (KinomeScan (DiscoverX)) EUB0000702a PLK2; conditions: at 1 µM
[23] = target: G protein-coupled receptor kinase 4 (Homo sapiens) (UniProt P32298); assay: Selectivity interaction (KinomeScan (DiscoverX)) EUB0000702a GRK4; conditions: at 1 µM

Mitogen-activated protein kinase kinase kinase 3, sequence (Q99759 whole entry): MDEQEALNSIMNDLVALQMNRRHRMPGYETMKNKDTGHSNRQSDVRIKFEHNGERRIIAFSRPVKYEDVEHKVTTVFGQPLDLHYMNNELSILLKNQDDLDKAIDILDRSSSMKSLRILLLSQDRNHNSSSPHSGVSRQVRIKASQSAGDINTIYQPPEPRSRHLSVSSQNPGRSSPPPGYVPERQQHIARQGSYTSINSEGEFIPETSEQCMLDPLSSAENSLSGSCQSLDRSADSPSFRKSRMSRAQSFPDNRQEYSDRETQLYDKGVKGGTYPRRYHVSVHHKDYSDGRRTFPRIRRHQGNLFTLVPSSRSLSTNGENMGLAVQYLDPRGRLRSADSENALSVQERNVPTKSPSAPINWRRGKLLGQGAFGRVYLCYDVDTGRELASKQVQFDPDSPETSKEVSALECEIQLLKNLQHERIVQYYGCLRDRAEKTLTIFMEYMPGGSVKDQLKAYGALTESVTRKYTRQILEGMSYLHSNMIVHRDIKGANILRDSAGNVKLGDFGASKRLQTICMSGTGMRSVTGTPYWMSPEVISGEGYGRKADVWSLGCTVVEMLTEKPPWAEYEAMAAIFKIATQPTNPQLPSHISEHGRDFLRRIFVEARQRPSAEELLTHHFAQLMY

IC50 [1]: 0.0348 µM | % of control [2]: 0.9% | % of control [3]: 3.4% | IC50 [4]: 0.0194 µM | % of control [5]: 8.3%
Structure (SMILES): CN1C(=O)c2sccc2N(C)c2nc(Nc3ccc(S(N)(=O)=O)cc3)ncc21

Structure (SMILES): CCOc1cn(-c2ccc(F)cc2C)nc1C(=O)Nc1ccc(Oc2ccnc3cc(OC)c(OC)cc23)c(F)c1
% of control [6]: < 10%

% of control [7]: 1.6% | % of control [8]: 0.2% | % of control [9]: 1.4%
Structure (SMILES): COc1cc2ncn(-c3cc(OCc4ccccc4C(F)(F)F)c(C(N)=O)s3)c2cc1OC [GW843682X]

% of control [10]: 97% | % of control [11]: 99% | % of control [12]: 91% | % of control [13]: 56% | % of control [14]: 0.3% | % of control [15]: 13.8% | % of control [16]: 103% | % of control [17]: 4.2% | % of control [18]: 93% | % of control [19]: 100%
Structure (SMILES): CC[C@@H]1C(=O)N(C)c2cnc(Nc3ccc(C(=O)NC4CCN(C)CC4)cc3OC)nc2N1C1CCCC1

% of control [20]: 4.6% | % of control [21]: 10% | % of control [22]: 0.5% | % of control [23]: 10%
Structure (SMILES): CN(c1ccnc(CNc2nc(Nc3ccc4c(c3)CC(=O)N4)ncc2C(F)(F)F)n1)S(C)(=O)=O [PF-00911705]
